The test system of one assay is KMS-11. Kind of assay: Inhibition of proliferation of KMS-11 cells. The following applies: Homo sapiens; Multiple myeloma cell line KMS-11; read-out: IC50 against KMS-11. It counts as cell-based. As to the method:
(§1) 1) CWR22RV1 cells were subcultured in cell culture medium, and the cells in good growth condition were seeded in a 96-well plate, 80 μL for each well, and the cell number in each well was 1500. The plate was incubated overnight in a 37° C., 5% CO2 cell incubator. 2) The drug was prepared as 30 mM stock solution with dimethyl sulfoxide (DMSO). Prior to use, the stock solution was diluted 3 times with DMSO, and then further diluted as 3-fold gradient to obtain 9 concentration gradients. Then, each concentration of compound was diluted 200 times with the culture solution (ensuring that the DMSO concentration in the culture system was 0.1%), and two replicate wells were set for each concentration. 20 μL of diluted compound solution was added to the cell culture well (with final concentrations of 10 μM, 3.3 μM. 1.1 μM . . . ), and the plate was gently shaken to mix. In addition, 3 negative control wells containing only cells and 3 blank control wells containing only culture medium were included (6 wells were each added 20 μL DMSO diluted 200 times with culture medium). 2. Result detection: (1) After culturing for 6 days, 10 μL CCK-8 was added to each well, and the plate was continually cultured in a 37° C., 5% CO2 cell incubator for 2.5 h. (2) The absorbance (OD value) was detected at 450 nm using a multifunctional microplate reader. (3) The data were analyzed by Dose-response-inhibition equation in the software GraphPad Prism6, and the IC50 value was obtained.
(§2) Using the same method as Experimental example 2, CWR22RV1 cells were replaced with tumor cells in Table 3, and the IC50 (nM) of the compound according to the present invention against the activity of these tumor cells was tested and calculated.

The next assay relates to KMS-20. Put plainly: Inhibition of proliferation of KMS-20 cells. In kind it is cell-based. The note with it: Multiple myeloma cell line KMS-20; read-out: IC50 against KMS-20. As to the method: as §1, §2
For the next assay, the system named is CWR22RV1 cells. Kind of assay: Inhibition of proliferation of CWR22RV1 cells (CCK-8). In kind it is cell-based, human. The note with it: Homo sapiens, CWR22Rv1, 144 h, 6 days culture. A digest of the protocol: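 Proliferation read-out was CCK-8 absorbance at 450 nm after 2.5 h, following 6-day culture with compound. Each well held 1500 CWR22RV1 cells; the 3-fold, 9-point series started at a final 10 μM in 0.1% DMSO. Dose-response-inhibition fit gave the IC50.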

The test system of another assay is Pfeiffer. Kind of assay: Inhibition of proliferation of Pfeiffer cells. In kind it is cell-based. The note with it: Homo sapiens; Lymphoma cell line Pfeiffer; read-out: IC50 against Pfeiffer. As to the method:
as §1, §2

Another assay has as its system MLMA. Kind of assay: Inhibition of proliferation of MLMA cells. In kind it is cell-based. The note with it: Lymphoma cell line MLMA; read-out: IC50 against MLMA. The method, then: as §1, §2
For the next assay, the system named is RL. Put plainly: Inhibition of proliferation of RL cells. It counts as cell-based. The following applies: Homo sapiens; Lymphoma cell line RL; read-out: IC50 against RL. The method, then:
as §1, §2

The target in the next assay is T1, histone acetylase p300 (Homo sapiens, UniProt Q09472).
T1 construct: purchased BPS
T1 sequence (Q09472 whole entry): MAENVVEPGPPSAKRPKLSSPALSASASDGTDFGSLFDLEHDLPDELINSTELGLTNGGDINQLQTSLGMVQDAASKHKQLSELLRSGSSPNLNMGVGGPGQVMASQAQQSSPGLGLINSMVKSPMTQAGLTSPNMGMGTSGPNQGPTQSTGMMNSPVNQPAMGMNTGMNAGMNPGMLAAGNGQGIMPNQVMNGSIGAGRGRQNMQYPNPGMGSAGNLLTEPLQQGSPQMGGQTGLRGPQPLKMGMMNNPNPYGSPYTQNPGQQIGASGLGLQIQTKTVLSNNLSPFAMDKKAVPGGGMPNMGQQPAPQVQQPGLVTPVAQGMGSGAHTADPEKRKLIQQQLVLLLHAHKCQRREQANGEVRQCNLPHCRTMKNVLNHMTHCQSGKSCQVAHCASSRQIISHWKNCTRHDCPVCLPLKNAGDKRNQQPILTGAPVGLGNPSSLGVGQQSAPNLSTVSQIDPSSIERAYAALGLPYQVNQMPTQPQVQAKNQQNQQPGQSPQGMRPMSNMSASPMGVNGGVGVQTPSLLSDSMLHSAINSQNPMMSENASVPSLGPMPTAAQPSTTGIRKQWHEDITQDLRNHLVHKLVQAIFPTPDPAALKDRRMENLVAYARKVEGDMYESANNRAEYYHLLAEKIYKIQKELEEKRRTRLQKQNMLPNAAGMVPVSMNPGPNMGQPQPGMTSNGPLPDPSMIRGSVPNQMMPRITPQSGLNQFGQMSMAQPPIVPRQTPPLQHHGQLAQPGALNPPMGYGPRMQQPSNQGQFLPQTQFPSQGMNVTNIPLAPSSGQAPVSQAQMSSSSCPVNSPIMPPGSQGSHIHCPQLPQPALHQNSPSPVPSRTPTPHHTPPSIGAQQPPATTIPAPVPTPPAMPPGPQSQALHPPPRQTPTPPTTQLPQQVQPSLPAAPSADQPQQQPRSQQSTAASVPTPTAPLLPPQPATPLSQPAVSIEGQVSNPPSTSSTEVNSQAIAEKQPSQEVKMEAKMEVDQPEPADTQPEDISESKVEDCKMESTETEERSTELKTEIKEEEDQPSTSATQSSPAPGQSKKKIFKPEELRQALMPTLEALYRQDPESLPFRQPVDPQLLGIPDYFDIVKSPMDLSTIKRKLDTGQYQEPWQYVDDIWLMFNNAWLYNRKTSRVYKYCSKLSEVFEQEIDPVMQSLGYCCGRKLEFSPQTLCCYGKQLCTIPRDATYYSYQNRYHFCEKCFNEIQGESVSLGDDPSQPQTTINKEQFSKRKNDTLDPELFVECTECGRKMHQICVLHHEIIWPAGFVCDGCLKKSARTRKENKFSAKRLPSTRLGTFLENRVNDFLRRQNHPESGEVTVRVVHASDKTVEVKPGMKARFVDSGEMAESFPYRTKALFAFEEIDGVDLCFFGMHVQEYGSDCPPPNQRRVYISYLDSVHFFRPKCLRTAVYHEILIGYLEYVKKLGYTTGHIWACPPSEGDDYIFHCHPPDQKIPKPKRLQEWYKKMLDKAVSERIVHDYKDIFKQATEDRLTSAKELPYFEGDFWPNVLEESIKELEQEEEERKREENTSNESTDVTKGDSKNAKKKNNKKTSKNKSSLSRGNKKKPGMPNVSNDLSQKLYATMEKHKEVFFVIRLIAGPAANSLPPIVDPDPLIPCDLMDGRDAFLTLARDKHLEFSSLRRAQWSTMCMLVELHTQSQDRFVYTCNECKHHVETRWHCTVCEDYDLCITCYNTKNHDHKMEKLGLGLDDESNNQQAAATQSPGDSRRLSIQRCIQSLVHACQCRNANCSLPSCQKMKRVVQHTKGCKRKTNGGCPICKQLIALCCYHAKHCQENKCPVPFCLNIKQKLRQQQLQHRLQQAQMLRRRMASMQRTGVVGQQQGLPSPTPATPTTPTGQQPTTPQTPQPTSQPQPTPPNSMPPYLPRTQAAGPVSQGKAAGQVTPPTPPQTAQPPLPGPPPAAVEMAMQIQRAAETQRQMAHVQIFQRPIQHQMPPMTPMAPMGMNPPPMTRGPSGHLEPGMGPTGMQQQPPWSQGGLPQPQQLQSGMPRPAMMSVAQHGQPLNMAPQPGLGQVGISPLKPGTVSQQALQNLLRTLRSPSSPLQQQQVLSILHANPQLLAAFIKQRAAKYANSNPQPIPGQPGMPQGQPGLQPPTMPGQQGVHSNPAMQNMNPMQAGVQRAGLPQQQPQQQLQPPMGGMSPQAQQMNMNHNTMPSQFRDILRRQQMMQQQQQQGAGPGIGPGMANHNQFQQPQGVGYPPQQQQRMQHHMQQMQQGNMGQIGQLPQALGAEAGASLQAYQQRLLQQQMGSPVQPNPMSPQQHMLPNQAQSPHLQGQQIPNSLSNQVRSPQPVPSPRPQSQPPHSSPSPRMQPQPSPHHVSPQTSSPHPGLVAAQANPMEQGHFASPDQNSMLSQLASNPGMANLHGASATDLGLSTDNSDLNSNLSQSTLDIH
Kind of assay: Inhibitory activity on histone acetylase p300 (radioisotope FlashPlate). The note with it: enzyme 0.2 nM, peptide substrate 600 nM, [3H]-Ac-CoA 250 nM; read-out: IC50 against P300. In kind it is biochemical. The text has this:
Using the radioisotope FlashPlate technology, the half inhibitory concentration (IC50) of the compound according to the present invention was detected against histone acetylase p300 (purchased from BPS). […] Under the catalysis of histone acetylase p300, [3H]—Ac group in the isotope-labeled [3H]-Ac-CoA was transferred to the biotinylated histone polypeptide substrate (purchased from GL Biochem Ltd.), and then the biotinylated histone peptide substrate bound to the streptavidin on the FlashPlate board, so that the isotope was close enough to the FlashPlate board. Thus, the radiation energy of isotope could convert the scintillation fluid coated on the FlashPlate board into photons, that was able to be detected. Detailed procedures were as follows:
• 1× reaction buffer: 50 mM Tris-HCl, pH 7.5; 0.01% Tween-20 • Reaction stop solution: 750 μM Ac-CoA solution
Each test compound was dissolved into 10 mM with 100% DMSO, and then each compound was diluted to the desired concentration in Echo 384-well plate. […] 200 nl of 100% DMSO was transferred into the well as the negative control.
p300 was added to 1× reaction buffer to form a 2× enzyme solution (the final concentration of enzyme being 0.2 nM).
The peptide substrate and [3H]-Ac-CoA were added to the 1-fold reaction buffer, to form a 2-fold substrate solution (the final concentration of the substrate being 600 nM and 250 nM, respectively).
10 μl of 2-fold enzyme solution was added to the wells of 384-well reaction plate. […] The plate was centrifuged at 1000 rpm for 1 min and incubated at room temperature for 15 min.
10 μl of 2-fold substrate solution was added to each well of 384-well reaction plate. The plate was centrifuged at 1000 rpm for 1 min, and then reacted at 25° C. for 60 min.
10 μl of reaction stop solution was added to each well of 384-well reaction plate to stop the reaction. 25 μL solution was collected from each well of the test plate and transferred to Flashplate, that was placed at room temperature for 1 h. Then, Flashplate plate was washed three times with 0.1% Tween-20 solution.
4) Reading Data with MicroBeta 2
The data were copied from Microbeta 2. […] The maximum value is the conversion rate of the control DMSO, and the minimum value is the conversion rate of the control without enzyme activity.
The data were imported into Graph Pad Prism5, and the formula “log(inhibitor) vs. response−Variable slope” was used to perform curve fitting, to obtain the half inhibitory concentration (IC50).

Setting [1] is: read-out: IC50 against CWR22RV1 cells.
[2] abbreviates: read-out: IC50 against CWR22RV1 cells (text).

Where two headings read alike, the source gives them in different places.

What is called IC50 is the point on the concentration scale where inhibition reaches its midpoint.

On to `CNC(=O)Nc1ccc2c(c1)CC[C@@]21OC(=O)N(CC(=O)N2C(C)CC[C@H]2c2cc(F)c(F)c(F)c2)C1=O` (stereo in doubt) [Example 205, 1-((R)-3′-(2-((2S,5R)-2-(3,4,5-trifluorophenyl)-5-methylpyrrolidin-1-yl)-2-oxoethyl)-2′,4′-dioxo-2,3-dihydrospiro[indene-1,5′-oxazolidine]-5-yl)-3-methylurea], for which the IC50 in the assay on KMS-11, in the assay on KMS-20, in the assay with CWR22RV1 cells (setting [1]), with CWR22RV1 cells (setting [2]), in the assay on Pfeiffer and in the assay on MLMA was no more than 500 nM in each case. For the same compound, the IC50 was no more than 500 nM with RL and 1.6 nM at histone acetylase p300.
Regarding `CNC(=O)Nc1ccc2c(c1)CC[C@@]21OC(=O)N(CC(=O)N2[C@@H](C)CC[C@H]2c2ccc(F)c(F)c2)C1=O` [Example 201], the IC50 with KMS-11, in the assay with KMS-20, in the assay on CWR22RV1 cells (setting [1]), in the assay with CWR22RV1 cells (setting [2]), in the assay with Pfeiffer and in the assay on MLMA was no more than 500 nM throughout. In addition, the IC50 was no more than 500 nM in the assay with RL and 1.6 nM at histone acetylase p300.
As to `CNC(=O)Nc1cc2c(cc1F)[C@@]1(CC2)OC(=O)N(CC(=O)N2[C@@H](C)CC[C@H]2c2ccc(F)c(F)c2)C1=O` [Example 389, 1-((R)-3′-(2-((2S,5S)-2-(3,4-difluorophenyl)-5-methylpyrrolidin-1-yl)-2-oxoethyl)-6-fluoro-2′,4′-dioxo-2,3-dihydrospiro[indene-1,5′-oxazolidine]-5-yl)-3-methylurea], the IC50 with KMS-11, with KMS-20, in the assay with CWR22RV1 cells (setting [1]), in the assay with CWR22RV1 cells (setting [2]), in the assay with Pfeiffer and in the assay with MLMA was no more than 500 nM throughout. Also, the results for the IC50 in the assay on RL and at histone acetylase p300 were no more than 500 nM and 1.9 nM, respectively.

(Values after patent US20220087996A1, “Histone acetylase p300 inhibitor and use thereof” (HINOVA PHARMACEUTICALS INC., priority 2018, published 2022).)
